Patent publication US20220106282A1, “TREATMENT FOR BREAST CANCER, INCLUDING TRIPLE-NEGATIVE BREAST CANCER” (priority 2018, published 2022)
Where “and” joins values, the source holds several entries; their conditions need not be identical. Identical values can stand only once.

Columns and labels:
[1] = tested on: breast tumors in female FVB mice transgenic for HER-2/neu; assay: Antitumor activity on model of multiple breast tumors in HER-2/neu transgenic mice
Description: Two adenocarcinoma subtypes can be differentiated, in particular ER+, PR−, and ER−, PR− [2].
The study was carried out in female FVB mice transgenic for HER-2/neu by conventional category; the strain was obtained from the mouse bank Charles River Laboratories (Italy). At the beginning of the study the animals were 21-41 weeks old having weight of 25 to 30 g.
The study medicament was administered i.g. using a metal atraumatic gavage (with the procedure corresponds to the oral route of administration in clinical settings). The medicament was administered in a single daily dose (20 mg/kg of body weight) and 5-fold daily dose of 100 mg/kg of body weight. Ex tempore solutions of the medicament for administration were prepared in olive oil (refined olive oil supplemented with unrefined extra virgin olive oil available under Global Village “Clasico” trademark, lot L:183351116, expiry date 26 Apr. 2020, BAIEO, Spain). The administered volume was 0.1 ml per 10 g of a mouse body weight (0.2 ml of a ready-to-use formulation for a mouse of 20 g). The medicament administration was started 24 hours after the randomization. The duration of the administration course was 27-28 days.
This dose corresponds to a human daily dose of 20 mg/kg.
The control groups were given the olive oil (placebo).
The evaluation criteria included the clinical observation data, animals body weights, time of death (if applicable), tumor growth over time, pathomorphological examination data (verification of a neoplasm during autopsy, assessment of toxic effects by macroscopic presentation of changes in the internal organs).
The animals body weights were recorded before the first administration of the medicaments and then twice per week using a verified high-speed electronic laboratory balance Ohaus Scout Pro (USA) with a maximum load of 2000 g and a measurement step of 0.1 g.
Macroscopically detectable tumor nodes were measured in animals once per week during weighing process. Two linear dimensions including the largest one and the largest rectangular to the former were recorded for each of the nodes. The largest dimension was taken as a length (a) and the second dimension as a width (b) of the tumor nodes. A tumor volume was calculated by the expression as follows: […]
The efficacy of the therapy was assessed by recording a change in the average tumor volume, tumor growth inhibition (TGI), and the average total tumor volumes and its change over time in each of the mice.
The percent of tumor growth inhibition was calculated by the expression as follows:
TGI=(Vctrl−Vexp)/Vctrl×100(%),
where Vctrl is an average tumor volume in a control group, and Vexp is an average tumor volume in an experimental group.
The primary data from individual forms were transferred to Microsoft Excel 2007 books. The group arithmetic average (M) and standard deviation (m) were calculated for all quantitative data. The statistical analysis was performed using the statistical software GraphPad Prism 6.0. The differences between the groups were assessed using ANOVA regression analysis and the Fisher's exact test.

ovariectomized rats = assay: Biochemical parameters of ovariectomized rats; type: in vivo, rat; settings: ovariectomised rats
[2] = tested on: patients having metastases spread into axillary lymph nodes; assay: Chemotherapy of patients with axillary lymph node metastases; type: in vivo, human
[3] = Acute oral toxicity, OECD 423 test; type: in vivo; settings: female, FVB transgenic for HER-2/neu, mouse, in vivo, po, oral (i.g.), OECD 423
[4] = tested on: FVB mice transgenic for HER-2/neu; assay: Acute oral toxicity, OECD 423 test; type: in vivo
[5] = Hormonal effect: uterine body weight in tumor-bearing mice; type: in vivo, mouse
[6] = 100 mg/kg i.g. daily, Day 27 vs Day −1

## C[C@H]1Oc2cc(OS(N)(=O)=O)ccc2[C@H]2CC[C@]3(C)C(=O)CCC[C@H]3[C@H]21 [compound of formula (1), 3-O-sulphamoyloxy-7β-methyl-D-homo-6-oxa-8α-estra-1,3,5(10)-trien-17a-one]
[1]; 100 mg/kg i.g. daily, Day 27
  TGI (average total tumor volume): 15%
  TGI (average tumor volume): 21%
[1]; [6]
  % of change from baseline (average total tumor volume): 102%
  % of change to the initial value (average tumor volume): 106%
[1]; 100 mg/kg i.g. daily, Day −1
  Average total volume of tumors in mice (M): 0.86 cm^3
  Average volume of tumors present at the beginning of the experiment (M): 0.34 cm^3
  Relative change of the average total volume of tumors to that of Day −1 (M): 0%
  TGI (average total tumor volume): −105%
  TGI (average tumor volume): −89%
[1]; 100 mg/kg i.g. daily, end of observation
  Average volume of new tumors, % less than that of the control group: 39%
[1]; 100 mg/kg i.g. daily, end of study
  Absolute number of new tumors: 25
[1]; 100 mg/kg i.g. daily, end of study, volume not increased by more than 20%
  Frequency of tumor stabilizations: 16%
[1]; 100 mg/kg i.g. daily, listed as medicament
  Average volume of new tumors at the end of the observation period (M): 0.20±0.05 cm^3 and 0.20 cm^3
[1]; FVB mice transgenic for HER-2/neu with breast tumors
  Tumor growth inhibition compared to Tamoxifen: inhibits tumor growth to the same extent as clinically approved Tamoxifen
[1]; end of the experiment, 27-28 days of administration
  Signs of toxic damage to the internal organs at autopsy: No specific signs of toxic damage to the internal organs were detected
Ovariectomized rats
  Uterotropic activity: no uterotropic activity
Ovariectomized rats; medicament 5 mg/kg bw
  Uterus weight: 33 ± 3 mg/100 g bw
[2]; as compared to the Tamoxifen treated group
  Overall survival rate: increase the overall survival rate
[2]; as compared to the untreated group
  Prolongation of recurrence-free survival rate: 11%
[3]
  LD50 at 14 days: ≥ 5000 mg/kg
[4]; 300 mg/kg single i.g. dose
  Lethal effects (dead/total): 0/6
[4]; 300 mg/kg single i.g. dose, Day 1 (before administration)
  Body weight, average: 28.7 g
[4]; 300 mg/kg single i.g. dose, Day 1 (before administration), listed as medicament
  Body weight, individual mice: 26.4 and 28.2 and 30.0 and 29.0 (2×) and 29.5
[4]; 300 mg/kg single i.g. dose, Day 2
  Body weight, average: 28.8 g
[4]; 300 mg/kg single i.g. dose, Day 2, listed as medicament, in g (unit assumed)
  Body weight, individual mice: 26.4 and 28.0 and 30.8 and 29.6 and 28.6 and 29.2
[4]; 300 mg/kg single i.g. dose, Day 7
  Body weight, average: 29.6 g
[4]; 300 mg/kg single i.g. dose, Day 7, listed as medicament, in g (unit assumed)
  Body weight, individual mice: 27.0 and 28.4 and 30.8 and 31.2 and 30.4 and 29.6
[4]; 300 mg/kg single i.g. dose, Day 14
  Body weight, average: 29.6 g
[4]; 300 mg/kg single i.g. dose, Day 14, listed as medicament, in g (unit assumed)
  Body weight, individual mice: 27.2 and 28.6 and 30.3 and 31.0 and 30.6 and 29.8
[4]; 300 mg/kg single i.g. dose, listed as medicament
  Lethal effects (dead/total): no animals deaths
[4]; 300 mg/kg, Day 2
  Average body weight, % from baseline: (0) %
[4]; 300 mg/kg, Day 7
  Average body weight, % from baseline: (3) %
[4]; 300 mg/kg, Day 14
  Average body weight, % from baseline: (3) %
[4]; 300 mg/kg, entire observation period
  Visual signs of intoxication: None of the animals exhibited visual signs of intoxication
[4]; 2000 mg/kg
  Clinical signs of intoxication: No clinical signs of intoxication were observed
[4]; 2000 mg/kg i.g.
  Lethal effects (dead/total): 0/6
[4]; 2000 mg/kg i.g., Day 2
  Body weight, average: 26.3 g
[4]; 2000 mg/kg i.g., Day 7
  Body weight, average: 25.9 g
[4]; 2000 mg/kg i.g., Day 14
  Body weight, average: 27.2 g
[4]; 2000 mg/kg, Day 2
  Average body weight, % from baseline: (−3) %
[4]; 2000 mg/kg, Day 7
  Average body weight, % from baseline: (−4) %
  Decrease of body weight from the initial weight: 4%
[4]; 2000 mg/kg, Day 14
  Average body weight, % from baseline: (0) %
[4]; Day 15
  Macroscopic changes of the internal organs at autopsy: no changes of the internal organs were detected
[5]; 20 mg/kg, all mice
  Body weight: 30.2 ± 1.2 g
[5]; 20 mg/kg, estrous phase D
  Body weight: 30.3 ± 1.8 g
[5]; 20 mg/kg, estrous phase E
  Body weight: 30.1 ± 1.7 g
[5]; 100 mg/kg, all mice
  Body weight: 30.3 ± 0.8 g
[5]; 100 mg/kg, estrous phase D
  Body weight: 33.1 ± 4.5 g
[5]; 100 mg/kg, estrous phase E
  Body weight: 29.6 ± 0.5 g
